Reference: US20230292776A1, “GAS PHASE TREATMENT OF PRODUCE” (priority 2022, published 2023)

Tested on: avocados
Assay: Durometer shore (firmness, ripening) of treated avocados
Format: in vivo, avocado
Conditions: for average increase of shore over uninfected and untreated avocados: Example 22
Description: Example 9. The antifungal activity of a range of AITC and carvacrol vapor exposure times was tested against Cg in avocados. To measure the effect of the various treatments on ripening, durometer shore was taken after 7 days of incubation at ambient temperature and high humidity. All samples were wounded by removing the stem and infected by dispensing 1000 Cg spores suspended in 10 μL of water in the wound. The test groups consisted of avocados that were: infected and left untreated on the benchtop; infected and left untreated under a fume hood; exposed to the vapor of 3 mL of AITC in a Petri dish for 24 hours, 48 hours, and 72 hours; and exposed to the vapor of 3 mL of carvacrol in a Petri dish for 72 hours. FIG. 11 quantifies the infection results. […] All exposure times to AITC vapor reduced the incidence of Cg mold compared to the untreated samples. A 24 hour AITC exposure reduced the incidence of Cg mold by 90%. A 48 hour AITC exposure reduced the incidence of Cg mold by 97%. A 72 hour AITC exposure reduced the incidence of Cg mold by 83%.
Example 10. The antifungal activity of a range of AITC vapor exposure times were tested against Cg in avocados. To measure the effect of the various treatments on ripening, durometer shore was taken after 6 days of incubation at ambient temperature and high humidity. All samples were wounded by removing the stem and infected by dispensing 1000 Cg spores suspended in 10 μL of water in each wound. The test groups consisted of avocados that were: infected and left untreated on the benchtop; infected and left untreated in a fume hood; exposed to the vapor of 3 mL of AITC in a Petri dish for 24 hours, 48 hours, and 72 hours. FIG. 13 quantifies the infection results. […] All exposure times to AITC vapor reduced the incidence of Cg mold compared to the untreated samples.
Example 21. The antifungal activity of avocados exposed to AITC vapor and prochloraz was tested against Cg in avocados. To measure the effect of the various treatments on ripening, durometer shore was taken after 5 days of incubation at ambient temperature (about 20° C. to about 25° C.) and high humidity (about 88% relative humidity to about 93% relative humidity). All samples were wounded by removing the stem and infected by dispensing 1000 Cg spores suspended in 10 μL of water in the wound. Exposure to vapor was done by placing the avocados in an airtight container, dispensing AITC onto Whatman filter paper discs, suspending the discs in front of a battery-powered fan, closing the container and incubating the avocados for 30 minutes. After vapor exposure, the avocados were left at ambient temperature, high humidity, and assessed for Cg mold on day 5. Treatment groups consisted of avocados that were: exposed for 30 minutes to the vapor of 125 μL of AITC disposed on a filter paper disc; dipped in a solution of 0.1 g/L of prochloraz and placed to dry on a rack in front of a fan for 30 min; infected and left untreated; and uninfected and untreated. […] To prepare the 0.1 g/L of prochloraz, 10 mg of prochloraz was mixed with 10 mL of ethanol and 90 mL of water. […] A 24 hour AITC exposure reduced the incidence of Cg mold by 90%. […] The mean shore value for the untreated avocados was 28.8 (standard deviation (SD)=10.8). The mean shore value for the infected avocados was 47.3 (SD=11.8). The mean shore value of the positive control, prochloraz treated avocados was 44.3 (SD=14.7). The mean shore value of the AITC treated avocados was 61.1 (SD=10.5).
Durometer Shore Measurement: A Fruit Hardness Tester— HPE III Fff w/Sphere Ø 5.0 mm Test Anvil is used for the measurements. The Operating Procedure is as follows: • 1) At room temperature and 1 atm pressure, switch on the measuring device and press the hull or sleeve against the specimen so that the contact surface of the pressure plate rests on the fruit. […]

In the case of `C=CCN=C=S` [AITC, allyl isothiocyanate], the “average increase of durometer shore over untreated avocados” value (Example 9, all AITC treatments (3 mL; 24, 48, 72 hours), after 7 days, P value<0.0001) is reported as 20.3 shore, the “average increase of durometer shore over infected avocados” value (Example 10, all AITC treatments (3 mL; 24, 48, 72 hours), after 6 days, P value<0.005) is reported as 15.4 shore and the “shore higher than the untreated avocados” value (Example 21, 125 μL, 30 minutes, after 5 days) is reported as “more than 30 shore”. The mean shore value (Example 21, Cg-infected avocados, AITC 125 μL 30 minutes, prochloraz 0.1 g/L dip, after 5 days) was 61.1 (SD=10.5), the “average increase of shore over uninfected and untreated avocados” value (250 μL, 30 minutes, after 5 days, P value=0.0016) was “about 10 shore” and the “average increase of shore over uninfected and untreated avocados” value (500 μL, 30 minutes, after 5 days, P value<0.0001) was “about 28.5 shore”. For the same molecule, the “average increase of shore over untreated avocados” value (Example 23, 500 μL AITC vapor, coating agent 40 g/L dip, after 11 days, P value<0.0001) was 22.5 shore.
